Our source for the TNFα production values is patent US20190336615A1, “TUMOR TARGETING CONJUGATES AND METHODS OF USE THEREOF” (SILVERBACK THERAPEUTICS, INC., priority 2017, published 2019).

One assay deals with monocytes. Briefly: TNFα production by monocytes with or without tumor cells (AlphaLISA). The format is cell-based, human. The following applies: monocytes with CEA-expressing CHO cells, FIG. 22. As for the experimental part: Monocytes were prepared as follows: PBMCs were isolated from normal human blood using Ficoll purification, and monocytes were enriched from the PBMCs using Stem Cell Technologies Human Monocyte without CD16 Depletion Negative Selection Kits according to the manufacturer's instructions. Monocytes were then slowly frozen and stored in liquid nitrogen. Prior to assay monocytes were thawed and rested overnight at 37° C. in 5% CO2 in assay media (RPMI 1640 media supplemented with 10% FBS, […], 1 mM HEPES, 1× non-essential amino acids, 0.1 mM sodium pyruvate). The following day, monocytes were plated at 4×10^4 cell/well with or without tumor cells at 4×10^4 cell/well in 96-well flat bottom plates in assay media described above. After overnight culture, supernatants were harvested, and TNFα levels were determined by AlphaLISA.

The test system of the next assay is PBMCs. Briefly: TNFα production by PBMCs with antigen-expressing tumor cells (AlphaLISA). The format is cell-based, human. The following applies: PBMCs with SKBR3 tumor cells (HER2), 24 hours, FIG. 20. As for the experimental part: Anti-HER2-antiCD40 G1 antibody was prepared as described in Example 18. Pertuzumab was used as the HER2 G1WT antibody. Conjugates were prepared as generally described in Example 15. PBMCs were isolated from human blood as described above. Briefly, PBMCs were isolated by Ficoll gradient centrifugation, resuspended in RPMI, and plated in 96-well flat bottom microtiter plates (125,000/well). Antigen-expressing tumor cells were then added (25,000/well) along with titrating concentrations of conjugates or unconjugated parental antibodies as controls. After overnight culture, supernatants were harvested, and TNFα levels were determined by AlphaLISA.
Referring to FIG. 20, SKBR3 tumor cells were added to PBMCs, prepared as described above. SKBR3 tumor cells express the tumor antigen HER2. Anti-HER2 TLR8 benzazepine agonist conjugates, either monospecific or bispecific with CD40, and conjugated to various TLR8 benzazepine agonists were added. The immune-stimulatory compound-linkers in the conjugates used in the study are identified in TABLES 30 and 31.
Background: Bead proximity is the source of the signal in Alpha formats.

As for “Pertuzumab [HER2 G1WT, reference compound]”, the TNFα production result was “only the CEA conjugate exhibited activity” with monocytes and “did not stimulate TNFα production” in the assay with PBMCs.
